Laboratory results as given in patent publication US8546608B2, “Proteasome inhibitors and methods of using the same” (Cephalon, Inc., priority 2003, dated 2013).
Where a name gives a salt, the structure may show the parent alone. Read-outs that look alike come from different tables or passages of the source.

Columns and labels:
[1] = biological target: T1, proteasome in Molt-4 cells (human leukemia) (Homo sapiens, UniProt P20618+P28074); format: cell-based
T1 sequence (P28074 60-263): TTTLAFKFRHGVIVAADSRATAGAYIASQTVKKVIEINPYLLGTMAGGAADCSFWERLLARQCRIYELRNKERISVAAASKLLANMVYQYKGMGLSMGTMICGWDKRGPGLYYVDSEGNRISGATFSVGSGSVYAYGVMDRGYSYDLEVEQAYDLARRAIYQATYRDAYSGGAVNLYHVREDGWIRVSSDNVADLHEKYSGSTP
T1 sequence (P20618 29-241): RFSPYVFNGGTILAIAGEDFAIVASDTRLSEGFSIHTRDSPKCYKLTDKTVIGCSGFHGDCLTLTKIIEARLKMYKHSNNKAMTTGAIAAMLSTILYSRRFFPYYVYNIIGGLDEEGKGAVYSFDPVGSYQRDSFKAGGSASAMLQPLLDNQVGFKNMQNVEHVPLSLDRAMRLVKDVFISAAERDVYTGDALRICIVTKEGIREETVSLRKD
In short: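 Intact Molt-4 cells (6×10^6 cells/mL) in HEPES-buffered saline were preincubated with inhibitor 15 min at 37 °C, then given cell-permeable MeOSuc-FLF-AFC at 25 μM final.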

[2] = biological target: T2, 20S Human Erythrocyte Proteasome (HEP) (Homo sapiens, UniProt P20618+P28074); experiment: Chymotrypsin-like activity of 20S Human Erythrocyte Proteasome (HEP), IC50 determination; format: biochemical; conditions: assay of Example C, inhibition of HEP
T2 construct: 20S Human Erythrocyte Proteasome (HEP), purchased from Immatics Biotechnologies Inc; purchased Immatics Biotechnologies Inc., Tübingen, Germany; host or cells: human erythrocytes (natural source)
In short: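 20S proteasome at 0.2 μg/mL (about 0.6 nM catalytic sites) in 20 mM Tris with 0.04% SDS, preincubated 15 min at 37° C with inhibitor before Suc-LLVY-AMC (100 μM final). AMC fluorescence read in the linear range; triplicates, IC50 from concentration series.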

[3] = read-out: MOLT4 (EC50); assay of Example E, inhibition of MOLT4
[4] = assay of Example E, inhibition of MOLT4; read-out: MOLT4 (EC50)

| Compound | IC50 [2] [nM] | EC50 [1, 4] [nM] | EC50 [1, 3] [nM] |
| --- | --- | --- | --- |
| CC(C)C[C@H](NC(=O)[C@@H](NC(=O)c1cccc(-c2cccnc2)c1)[C@@H](C)O)B(O)O [E.3.9, Boronic acid, [(1R)-1-[[(2S,3R)-3-hydroxy-2-[(3-pyridin-3-yl-benzoyl)amino]-1-oxobutyl]amino]-3-methylbutyl], hydrochloride salt] | < 10 |  | < 200 |
| CCCOc1cccc(C(=O)N[C@H](C(=O)N[C@@H](CC(C)C)B(O)O)[C@@H](C)O)c1 [E.3.10, Boronic acid, [(1R)-1-[[(2S,3R)-3-hydroxy-2-[(3-propoxy-benzoyl)amino]-1-oxobutyl]amino]-3-methylbutyl]] | < 10 | < 200 |  |
| CC(C)C[C@H](NC(=O)[C@@H](NC(=O)c1cnccn1)[C@@H](C)O)B(O)O [E.4.1, Boronic acid, [(1R)-1-[[(2S,3R)-3-hydroxy-2-[(2-pyrazinecarbonyl)amino]-1-oxobutyl]amino]-3-methylbutyl]] | < 100 | 200 to 2000 |  |
| CCCCCCCCCC(=O)N[C@@H](CNC(C)=O)C(=O)N[C@@H](CC(C)C)B(O)O [E.5.1, Boronic acid, [(1R)-1-[[(2S)-3-(acetylamino)-2-[(decanoylamino)]-1-oxopropyl]amino]-3-methylbutyl]] | < 10 | < 200 |  |
| CCCCCCCCCC(=O)N[C@@H](CNC(=O)CCCCC)C(=O)N[C@@H](CC(C)C)B(O)O [E.5.13, Boronic acid, [(1R)-1-[[(2S)-3-(hexanonylamino)-2-[(decanoylamino)]-1-oxopropyl]amino]-3-methylbutyl]] | < 10 | < 200 |  |
| CCCCc1ccc(C(=O)N[C@@H](CNC(=O)c2cc(C)nn2C)C(=O)N[C@@H](CC(C)C)B(O)O)cc1 [E.5.29, Boronic acid, [(1R)-1-[[(2S)-3-(4-(1,3-dimethyl-1H-pyrazole-5-carbonylamino]-2-[(4-butylbenzoyl)amino]-1-oxopropyl]amino]-3-methylbutyl] hydrochloride] | < 10 |  | < 200 |
| CCCCc1ccc(C(=O)N[C@H](C(=O)N[C@@H](CC(C)C)B2OC3(CCCCC3)C3(CCCCC3)O2)[C@@H](C)O)cc1 [F.2.1, 4-Butylbenzamide, N-[(1S,2R)-1-[[[(1R)-1-[13,15-dioxa-14-bora-dispiro[5.0.5.3]pentadec-14-yl]-3-methylbutyl]amino]carbonyl]-2-hydroxypropyl]-] | < 100 | 200 to 2000 |  |
| Boronic acid, [(1R)-1-[[(2S)-5- [[imino(nitroamino)methyl]amino]-2-[(hexahydro- 2,5-methanopentalene-3a(1H)-carbonyl)amino]-1- oxopentyl]amino]-3-methylbutyl] [E.2.24] | < 10 | > 10000 |  |
| Boronic acid, [(1R)-1-[[(2S)-5- [[imino(nitroamino)methyl]amino]-2-[[(thiophene- 2-sulfonyl)acetyl]amino]-1-oxopentyl]amino]-3- methylbutyl] [E.2.69] | < 10 | > 10000 |  |

More lines, main results first:

| IC50 [2] [nM] | EC50 [1, 4] [nM] | Compound | EC50 [1, 3] [nM] |
| --- | --- | --- | --- |
| < 10 | < 200 | CC(C)C[C@H](NC(=O)[C@@H](NC(=O)c1ccc(-c2cccnc2)cc1)[C@@H](C)O)B(O)O [E.4, Boronic Acid, [(1R)-1-[[(2S,3R)-3-hydroxy-2-[[4-(3-pyridyl)benzoyl]amino]-1-oxobutyl]amino]-3-methylbutyl]] |  |
| < 100 | < 200 | CCCCc1ccc(C(=O)N[C@H](C(=O)N[C@@H](CC(C)C)B(O)O)[C@@H](C)O)nc1 [E.4.2, Boronic acid, [(1R)-1-[[(2S,3R)-3-hydroxy-2-[(5-butyl-pyridine-2-carbonyl)amino]-1-oxobutyl]amino]-3-methylbutyl]] |  |
| < 10 | < 200 | CCCCc1ccc(C(=O)N[C@@H](CNC(=O)c2cnccn2)C(=O)N[C@@H](CC(C)C)B(O)O)cc1 [E.5, Boronic Acid, [(1R)-1-[[(2S)-3-(2-pyrazincarbonylamino)-2-[(4-butylbenzoylamino)]-1-oxopropyl]amino]-3-methylbutyl]] |  |
| < 10 | < 200 | CCCCc1ccc(C(=O)N[C@@H](CNC(=O)NCCC)C(=O)N[C@@H](CC(C)C)B(O)O)cc1 [E.5.2, Boronic acid, [(1R)-1-[[(2S)-3-(propylureido)-2-[(4-butyl)-benzoylamino]-1-oxopropyl]amino]-3-methylbutyl]] |  |
| < 10 | < 200 | CCCCc1ccc(C(=O)N[C@@H](CNC(=O)c2ccc(C)cc2)C(=O)N[C@@H](CC(C)C)B(O)O)cc1 [E.5.5] |  |
| < 10 | < 200 | CCCCc1ccc(C(=O)N[C@@H](CNC(=O)c2cccs2)C(=O)N[C@@H](CC(C)C)B(O)O)cc1 [E.5.7, Boronic acid, [(1R)-1-[[(2S)-3-[(thien-2-ylcarbonyl)amino]-2-[(4-butylbenzoylamino)]-1-oxopropyl]amino]-3-methylbutyl]] |  |
| < 10 | < 200 | CCCCCCCCCC(=O)N[C@@H](CNC(=O)c1cccs1)C(=O)N[C@@H](CC(C)C)B(O)O [E.5.9] |  |
| < 10 | < 200 | CCCCCC(=O)NC[C@H](NC(=O)c1ccc(CCCC)cc1)C(=O)N[C@@H](CC(C)C)B(O)O [E.5.10, Boronic acid, [(1R)-1-[[(2S)-3-(hexanoylamino)-2-[(4-butylbenzoylamino)]-1-oxopropyl]amino]-3-methylbutyl]] |  |
| < 10 | < 200 | CCCCCCCCCC(=O)N[C@@H](CNS(=O)(=O)c1ccc(F)cc1)C(=O)N[C@@H](CC(C)C)B(O)O [E.5.12, Boronic acid, [(1R)-1-[[(2S)-3-[4-fluoro-benzenesulfonamide]-2-[(decanoyl)amino]-1-oxopropyl]amino]-3-methylbutyl]] |  |
| < 10 | < 200 | CCCCc1ccc(C(=O)N[C@@H](CNC(=O)c2cccnc2)C(=O)N[C@@H](CC(C)C)B(O)O)cc1 [E.5.18, Boronic acid, [(1R)-1-[[(2S)-3-(nicotinoylamino)-2-[(4-butylbenzoylamino)]-1-oxopropyl]amino]-3-methylbutyl]] |  |
| < 10 | < 200 | CCCCc1ccc(C(=O)N[C@@H](CNC(=O)Nc2ccccc2)C(=O)N[C@@H](CC(C)C)B(O)O)cc1 [E.5.19, Boronic acid, [(1R)-1-[[(2S)-3-(3-phenylureido)-2-(4-butylbenzoylamino)-1-oxopropyl]amino]-3-methylbutyl]] |  |
| < 10 | < 200 | CCCCCCCCCC(=O)N[C@@H](CNC(=O)Nc1ccccc1)C(=O)N[C@@H](CC(C)C)B(O)O [E.5.21, Boronic acid, [(1R)-1-[[(2S)-3-(3-phenylureido)-2-(decanoylamino)-1-oxopropyl]amino]-3-methylbutyl]] |  |
| < 10 | < 200 | CCCCc1ccc(C(=O)N[C@@H](CNC(=O)c2ccc(-n3cncn3)cc2)C(=O)N[C@@H](CC(C)C)B(O)O)cc1 [E.5.40, Boronic acid, [(1R)-1-[[(2S)-3-(4-(1H-1,2,4-triazol-1-yl)benzoylamide)]-2-[(4-butylbenzoyl)amino]-1H-oxopropyl]amino]-3-methylbutyl] hydrochloride] |  |
| < 100 | < 200 | CCCCc1ccc(C(=O)N[C@H](CNC(=O)c2ccc(C)cc2)C(=O)N[C@@H](CC(C)C)B(O)O)cc1 [E.5.41] |  |
